Target: Sterol O-acyltransferase 1 (Homo sapiens) (UniProt P35610)
Assay: Inhibition of human ACAT1 in HepG2 cells assessed as inhibition of […] synthesis incubated for 1 hrs followed by 13C-addition of 13C-oleic acid pre-complexed with fatty acid free BSA for 6 hrs by LC/MS/MS analysis

Sequence of Sterol O-acyltransferase 1 (Homo sapiens) (P35610 whole entry, looked up): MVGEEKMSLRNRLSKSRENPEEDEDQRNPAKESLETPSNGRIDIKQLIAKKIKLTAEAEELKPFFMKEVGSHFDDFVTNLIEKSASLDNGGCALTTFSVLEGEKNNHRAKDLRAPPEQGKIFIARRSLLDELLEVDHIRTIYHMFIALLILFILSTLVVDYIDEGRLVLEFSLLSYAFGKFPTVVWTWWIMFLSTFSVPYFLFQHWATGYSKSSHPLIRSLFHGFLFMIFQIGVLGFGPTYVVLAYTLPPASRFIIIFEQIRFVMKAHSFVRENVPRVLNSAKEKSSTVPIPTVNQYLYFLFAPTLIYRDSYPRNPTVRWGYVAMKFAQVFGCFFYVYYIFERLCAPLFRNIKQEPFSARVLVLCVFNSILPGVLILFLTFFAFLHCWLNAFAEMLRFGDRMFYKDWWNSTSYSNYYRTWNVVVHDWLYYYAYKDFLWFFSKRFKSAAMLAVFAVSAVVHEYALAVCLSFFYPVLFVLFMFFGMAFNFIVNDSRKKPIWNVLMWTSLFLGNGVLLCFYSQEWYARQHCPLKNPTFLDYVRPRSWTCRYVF

IC50 [µM] | Structure (SMILES)
2.5 | O=C(Nc1ccc(N2CCC3(CC2)CC(C(=O)O)C3)nc1)c1nnc(Nc2ccc(F)c(F)c2)o1
0.045 | O=C(O)CC1CCC2(CC1)CCN(c1ccc(NC(=O)c3nnc(Nc4ccc(F)c(F)c4)o3)cn1)CC2

Reference: BindingDB's records for PubMed 35189320 (Dr.Vishwanath Karad MIT World Peace University, 2022)
